In paper PMC10408569, “Recruitment of hexahydroquinoline as anticancer scaffold targeting inhibition of wild and mutants EGFR (EGFR^WT, EGFR^T790M, and EGFR^L858R)” (Journal of Enzyme Inhibition and Medicinal Chemistry, 2023):

What was measured:
Test in all cases: NCI-60 anticancer screening (SRB)
Assay type in all cases: cell-based
K-562 = details: Homo sapiens, K562; for inhibition at 10 µM: K-562, leukemia, one dose 10 μM, read-out: Growth Inhibition Percentage (GI %)
RPMI-8226 = details: Homo sapiens; for inhibition at 10 µM: RPMI-8226, leukemia, one dose 10 μM, read-out: Growth Inhibition Percentage (GI %)
SR = details: Homo sapiens; for inhibition at 10 µM: leukemia, one dose 10 μM, read-out: Growth Inhibition Percentage (GI %)
EKVX = details: Homo sapiens; for inhibition at 10 µM: NSC lung cancer, one dose 10 μM, read-out: Growth Inhibition Percentage (GI %)
HOP-62 = details: Homo sapiens; for inhibition at 10 µM: HOP-62, NSC lung cancer, one dose 10 μM, read-out: Growth Inhibition Percentage (GI %)
HOP-92 = details: Homo sapiens; for inhibition at 10 µM: HOP-92, NSC lung cancer, one dose 10 μM, read-out: Growth Inhibition Percentage (GI %)
NCI-H226 = details: Homo sapiens; for inhibition at 10 µM: NCI-H226, NSC lung cancer, one dose 10 μM, read-out: Growth Inhibition Percentage (GI %)
NCI-H460 = details: Homo sapiens; for inhibition at 10 µM: NCI-H460, NSC lung cancer, one dose 10 μM, read-out: Growth Inhibition Percentage (GI %)
NCI-H522 = details: Homo sapiens; for inhibition at 10 µM: NCI-H522, NSC lung cancer, one dose 10 μM, read-out: Growth Inhibition Percentage (GI %)
HCT-116 = details: Homo sapiens; for inhibition at 10 µM: HCT-116, colon cancer, one dose 10 μM, read-out: Growth Inhibition Percentage (GI %)
HT29 = details: Homo sapiens, HT-29; for inhibition at 10 µM: HT29, colon cancer, one dose 10 μM, read-out: Growth Inhibition Percentage (GI %)
SF-268 = details: Homo sapiens; for inhibition at 10 µM: SF-268, CNS cancer, one dose 10 μM, read-out: Growth Inhibition Percentage (GI %)
SF-295 = details: Homo sapiens; for inhibition at 10 µM: SF-295, CNS cancer, one dose 10 μM, read-out: Growth Inhibition Percentage (GI %)
SF-539 = details: Homo sapiens; for inhibition at 10 µM: SF-539, CNS cancer, one dose 10 μM, read-out: Growth Inhibition Percentage (GI %)
SNB-19 = details: Homo sapiens; for inhibition at 10 µM: SNB-19, CNS cancer, one dose 10 μM, read-out: Growth Inhibition Percentage (GI %)
SNB-75 = details: Homo sapiens; for inhibition at 10 µM: SNB-75, CNS cancer, one dose 10 μM, read-out: Growth Inhibition Percentage (GI %)
U251 = details: Homo sapiens, U-251; for inhibition at 10 µM: U251, CNS cancer, one dose 10 μM, read-out: Growth Inhibition Percentage (GI %)
LOX IMVI = details: Homo sapiens; for inhibition at 10 µM: melanoma, one dose 10 μM, read-out: Growth Inhibition Percentage (GI %)
MALME-3M = details: Homo sapiens; for inhibition at 10 µM: melanoma, one dose 10 μM, read-out: Growth Inhibition Percentage (GI %)
M14 = details: Homo sapiens; for inhibition at 10 µM: M14, melanoma, one dose 10 μM, read-out: Growth Inhibition Percentage (GI %)
SK-MEL-2 = details: Homo sapiens; for inhibition at 10 µM: SK-MEL-2, melanoma, one dose 10 μM, read-out: Growth Inhibition Percentage (GI %)
SK-MEL-5 = details: Homo sapiens; for inhibition at 10 µM: SK-MEL-5, melanoma, one dose 10 μM, read-out: Growth Inhibition Percentage (GI %)
UACC-257 = details: Homo sapiens; for inhibition at 10 µM: UACC-257, melanoma, one dose 10 μM, read-out: Growth Inhibition Percentage (GI %)
IGROV1 = details: Homo sapiens, IGROV-1; for inhibition at 10 µM: IGROV1, ovarian cancer, one dose 10 μM, read-out: Growth Inhibition Percentage (GI %)
OVCAR-5 = details: Homo sapiens; for inhibition at 10 µM: OVCAR-5, ovarian cancer, one dose 10 μM, read-out: Growth Inhibition Percentage (GI %)
786-0 = details: Homo sapiens; for inhibition at 10 µM: 786-0, renal cancer, one dose 10 μM, read-out: Growth Inhibition Percentage (GI %)
A498 = details: Homo sapiens; for inhibition at 10 µM: A498, renal cancer, one dose 10 μM, read-out: Growth Inhibition Percentage (GI %)
ACHN = details: Homo sapiens; for inhibition at 10 µM: renal cancer, one dose 10 μM, read-out: Growth Inhibition Percentage (GI %)
CAKI-1 = details: Homo sapiens; for inhibition at 10 µM: CAKI-1, renal cancer, one dose 10 μM, read-out: Growth Inhibition Percentage (GI %)
SN 12C = details: Homo sapiens, SN12C; for inhibition at 10 µM: SN 12C, renal cancer, one dose 10 μM, read-out: Growth Inhibition Percentage (GI %)
DU-145 = details: Homo sapiens; for inhibition at 10 µM: DU-145, prostate cancer, one dose 10 μM, read-out: Growth Inhibition Percentage (GI %)
T-47D = details: Homo sapiens, T47D; for inhibition at 10 µM: breast cancer, one dose 10 μM, read-out: Growth Inhibition Percentage (GI %)

`CCOC(=O)C1=C(N)N(c2ccc(Cl)cc2)C2=C(C(=O)CC(C)(C)C2)C1c1ccc(Cl)cc1Cl` (racemic) [10d, (±)-Ethyl 2-amino-1–(4-chorophenyl)-4–(2,4-dichlorophenyl)-7,7-dimethyl-5-oxo-1-phenyl-1,4,5,6,7,8-hexahydroquinoline-3-carboxylate] gave an inhibition at 10 µM (K-562) of 79%, an inhibition at 10 µM (RPMI-8226) of 85% and an inhibition at 10 µM (SR) of 75%. The inhibition at 10 µM (EKVX) was 71%, the inhibition at 10 µM (HOP-62) was 46% and the inhibition at 10 µM (HOP-92) was 55%. For the same molecule, the inhibition at 10 µM (NCI-H226) was 62%, the inhibition at 10 µM (NCI-H460) was 49% and the inhibition at 10 µM (NCI-H522) was 51%. It also gave an inhibition at 10 µM (HCT-116) of 66%, an inhibition at 10 µM (HT29) of 43% and an inhibition at 10 µM (SF-268) of 27%. It also gave an inhibition at 10 µM (SF-295) of 48%, an inhibition at 10 µM (SF-539) of 21% and an inhibition at 10 µM (SNB-19) of 46%. The inhibition at 10 µM (SNB-75) was 11%, the inhibition at 10 µM (U251) was 58% and the inhibition at 10 µM (LOX IMVI) was < 10%. The inhibition at 10 µM (MALME-3M) was 32%, the inhibition at 10 µM (M14) was 30% and the inhibition at 10 µM (SK-MEL-2) was 37%. The inhibition at 10 µM (SK-MEL-5) was 51%, the inhibition at 10 µM (UACC-257) was 43% and the inhibition at 10 µM (IGROV1) was 16%. For the same molecule, the inhibition at 10 µM (OVCAR-5) was 17%, the inhibition at 10 µM (786-0) was 31% and the inhibition at 10 µM (A498) was 23%. It also gave an inhibition at 10 µM (ACHN) of 50%, an inhibition at 10 µM (CAKI-1) of 54% and an inhibition at 10 µM (SN 12C) of 47%. For the same molecule, the inhibition at 10 µM (DU-145) was 23% and the inhibition at 10 µM (T-47D) was 74%.
With `CCOC(=O)C1=C(N)N(c2ccccc2)C2=C(C(=O)CC(C)(C)C2)C1c1ccc(Cl)cc1Cl` (racemic) [10c, (±)-Ethyl 2-amino-4–(2,4-dichlorophenyl)-7,7-dimethyl-5-oxo-1-phenyl-1,4,5,6,7,8-hexahydroquinoline-3-carboxylate] the inhibition at 10 µM (K-562) was 87%, the GI50 (K-562; K-562, five doses 0.01-100 µM, 48 h) was 7.23 µM and the inhibition at 10 µM (RPMI-8226) was 92%. The GI50 (RPMI-8226; RPMI-8226, five doses 0.01-100 µM, 48 h) was 7.07 µM, the GI50 (SR; five doses 0.01-100 µM, 48 h) was 1.47 µM and the inhibition at 10 µM (SR) was 90%. It also gave an inhibition at 10 µM (EKVX) of 81%, a GI50 (EKVX; five doses 0.01-100 µM, 48 h) of 2.62 µM and an inhibition at 10 µM (HOP-62) of 49%. The GI50 (HOP-62; HOP-62, five doses 0.01-100 µM, 48 h) was 4.88 µM, the inhibition at 10 µM (HOP-92) was 100% and the GI50 (HOP-92; HOP-92, five doses 0.01-100 µM, 48 h) was 3.89 µM. The inhibition at 10 µM (NCI-H226) was 76%, the GI50 (NCI-H226; NCI-H226, five doses 0.01-100 µM, 48 h) was 2.34 µM and the inhibition at 10 µM (NCI-H460) was 82%. It also gave a GI50 (NCI-H460; NCI-H460, five doses 0.01-100 µM, 48 h) of 1.39 µM, an inhibition at 10 µM (NCI-H522) of 65% and a GI50 (NCI-H522; NCI-H522, five doses 0.01-100 µM, 48 h) of 2.22 µM. The inhibition at 10 µM (HCT-116) was 86%, the GI50 (HCT-116; HCT-116, five doses 0.01-100 µM, 48 h) was 7.89 µM and the inhibition at 10 µM (HT29) was 65%. It also gave a GI50 (HT29; five doses 0.01-100 µM, 48 h) of 1.98 µM, an inhibition at 10 µM (SF-268) of 48% and a GI50 (SF-268; SF-268, five doses 0.01-100 µM, 48 h) of 5.32 µM. For the same molecule, the inhibition at 10 µM (SF-295) was 76%, the GI50 (SF-295; SF-295, five doses 0.01-100 µM, 48 h) was 2.03 µM and the inhibition at 10 µM (SF-539) was 67%. It also gave a GI50 (SF-539; SF-539, five doses 0.01-100 µM, 48 h) of 3.78 µM, an inhibition at 10 µM (SNB-19) of 72% and a GI50 (SNB-19; SNB-19, five doses 0.01-100 µM, 48 h) of 2.92 µM. For the same molecule, the inhibition at 10 µM (SNB-75) was 59%, the GI50 (SNB-75; SNB-75, five doses 0.01-100 µM, 48 h) was 5.33 µM and the inhibition at 10 µM (U251) was 72%. The GI50 (U251; U251, five doses 0.01-100 µM, 48 h) was 2.46 µM, the GI50 (LOX IMVI; five doses 0.01-100 µM, 48 h) was 3.24 µM and the inhibition at 10 µM (LOX IMVI) was < 10%. It also gave a GI50 (MALME-3M; five doses 0.01-100 µM, 48 h) of 2.93 µM, an inhibition at 10 µM (MALME-3M) of 72% and an inhibition at 10 µM (M14) of 59%. For the same molecule, the GI50 (M14; M14, five doses 0.01-100 µM, 48 h) was 3.48 µM, the inhibition at 10 µM (SK-MEL-2) was 112% and the GI50 (SK-MEL-2; SK-MEL-2, five doses 0.01-100 µM, 48 h) was 1.7 µM. The inhibition at 10 µM (SK-MEL-5) was 102%, the GI50 (SK-MEL-5; SK-MEL-5, five doses 0.01-100 µM, 48 h) was 1.24 µM and the inhibition at 10 µM (UACC-257) was 65%. It also gave a GI50 (UACC-257; UACC-257, five doses 0.01-100 µM, 48 h) of 2.88 µM, an inhibition at 10 µM (IGROV1) of 41% and a GI50 (IGROV1; IGROV1, five doses 0.01-100 µM, 48 h) of 7.97 µM. It also gave an inhibition at 10 µM (OVCAR-5) of 43%, a GI50 (OVCAR-5; OVCAR-5, five doses 0.01-100 µM, 48 h) of 7.26 µM and an inhibition at 10 µM (786-0) of 66%. The GI50 (786-0; 786-0, five doses 0.01-100 µM, 48 h) was 4.24 µM, the inhibition at 10 µM (A498) was 53% and the GI50 (A498; A498, five doses 0.01-100 µM, 48 h) was 4.54 µM. For the same molecule, the GI50 (ACHN; five doses 0.01-100 µM, 48 h) was 1.83 µM, the inhibition at 10 µM (ACHN) was 83% and the inhibition at 10 µM (CAKI-1) was 77%. It also gave a GI50 (CAKI-1; CAKI-1, five doses 0.01-100 µM, 48 h) of 6.82 µM, an inhibition at 10 µM (SN 12C) of 79% and a GI50 (SN 12C; SN 12 C, five doses 0.01-100 µM, 48 h) of 3.08 µM. For the same molecule, the inhibition at 10 µM (DU-145) was 54%, the GI50 (DU-145; DU-145, five doses 0.01-100 µM, 48 h) was 6.71 µM and the inhibition at 10 µM (T-47D) was 79%. It also gave a GI50 (T-47D; five doses 0.01-100 µM, 48 h) of 1.04 µM.
